Measurements as given in publication PMC8786932, “Bicyclic azetidines target acute and chronic stages of Toxoplasma gondii by inhibiting parasite phenylalanyl t-RNA synthetase” (Nature Communications, 2022).
Values joined by “and” are separate entries in the source; they are usually repeats but may differ in a detail not shown here. Equal values may be shown once. Read-outs that look alike come from different tables or passages of the source.

What was measured:
[1] = system: HFF (primary human foreskin fibroblast); test: in vitro; type: cell-based; conditions: EC50 host cell/EC50 T. gondii
Experimental: For the toxicity screen, compounds were tested in 96-well plates using all the wells as no edge affect was observed. Compounds were diluted to 40 μM (2x concentration in 10% DMEM, 0.4% DMSO) before step-wise, 3-fold dilution in 10% DMEM to create 10-dose series (20 μM to 0.001 μM). Host cells were plated in black, μ-Clear 96-well plates (Greiner Bio-One). We compared several lineages including HepG2 (human hepatocellular carcinoma (ATCC-HB-8065)), THP-1 (human monocytic tumor line), SH-SY5Y (human neuroblastoma (ATCC CRL-2266)), A549 (human lung carcinoma (ATCC CRM-CCL-185)) and Caco-2 (human intestinal adenocarcinoma (ATCC HTB-37)) and HFF (primary human foreskin fibroblast) obtained from the laboratory of John Boothroyd at Stanford University. Cells were maintained in culture media according to the formulations recommended by ATCC. Cells were plated at a density (ranging from of 5 × 10^3 to 2 × 10^4 cells/well (100 μL vol)) resulting in sub-confluent monolayers to allow expansion during the 2 day growth assay. THP-1 cells were treated with 10 ng/ml phorbol 12-myristate 13-acetate (PMA) for 24 h to differentiate into macrophages before compound addition. For all other cells, compounds were added at 6 h post seeding to host cells containing plates (200 μL final volume, 0.2% DMSO) and incubated in culture medium at 37 °C supplemented with 5% CO2. At 44 h post compound addition (50 h total growth time), culture media was aspirated and replaced with Live Imaging solution (ThermoFisher) supplemented with 10 μg/mL Hoeschst 33342 (Sigma) for 20 min at 37 °C. […] Alternatively, plates fixed with 4% formaldehyde for 10 min and stained with 10 μg/mL Hoeschst 33342 (Sigma) for 20 min and imaged using a Cytation 3 multi-mode imager (DAPI, 10x objective, 4 images/well) and nuclei quantified using the Gen5 imager software (v3.08). Assays were repeated with two technical replicates within each of two independent biological replicates.
All statistical analyses were conducted using Prism 9 (GraphPad Software, Inc.). Dose–response inhibition curves for parasite and host cell toxicity screens (EC50 values) were generated using (Log(inhibitor) vs. normalized response—Variable slope) function. […] For multiple comparisons, two-way ANOVA analysis function using either Sidák’s multiple comparisons test or Dunnett’s multiple comparisons test was applied as indicated.

[2] = system: T. gondii RHΔΔ TgPheRS[L497I]; test: Tachyzoite lytic assay, L497I mutant; type: cell-based, Toxoplasma gondii; conditions: for % Parasite Growth: L497I; for EC50: Toxoplasma gondii
Experimental: In vitro cultures of HFF cells containing mature vacuoles were scraped, passaged through 23 g blunt end needles, and filtered using 3 micron filters. Purified parasites were resuspended in 350 μL of cytomix plus[49] and combined in a BTX 4 mm gap cuvette with 30 μL of PCR amplified templates corresponding to mutations of interest and 10 μg of pSAG1:Cas9-GFP U6:sgTgPheRS^[mut] (in 20 μL, 400 μL total volume, see Supplementary Data 1 for sgRNA sequences) prior to electroporation using a BTX ETM 830 electroporator. Amplified templates for TgPheRS mutations were generated from gBlocks (Integrated DNA Technologies, Coralville, IA, USA) that contain a BclI restriction site that replaces the PAM sequence to protect the repair template from being cut by Cas9. At 16 h post-transfection, transgenic parasites expressing pSAG1:Cas9-GFP were sorted on a Sony SH800 FACS sorter directly into 96-well plates. Single clones containing TgPheRS^[mut] were identified by amplifying a ~500 bp PCR fragment around introduced mutation followed by digestion using BclI (New England Biolabs) BclI sensitive clones were expanded and the locus was Sanger sequenced to verify incorporation of each independent mutation. To generate firefly luciferase (FLuc) expressing strains, freshly harvested parasites were combined with 20 μg of pTUB-FLUC DHFR flox plasmid and 10 μg of pSAG1:Cas9-GFP U6:sgUPRT[50] (in 50 μL cytomix plus) and transformed by electroporation as described above. Parasites were allowed to recover overnight followed by sequential selection with pyrimethamine (1.0 μM) and 5-flurodeoxyuracil (FUDR, 10 μM), as described previously. Stable clones were isolated by limiting dilution and a clone from each genetic background selected based on high luciferase activity (Table 1).
Parasite growth on HFF monolayers was monitored using a 96-well plate-based lytic assay modified from a previously described protocol. […]. Freshly harvested parasites (7.5 × 10^4 /well) were added to each well (in 100uL volume) to reach the final concentration range (10 μM to 0.0005 μM, 200 μL/well, 0.1% DMSO). Plates were incubated for 72 h at 37 °C then culture medium was aspirated and monolayers were fixed with 100% ethanol (ETOH) for 5 min at room temperature (RT). After rinsing with water, wells were stained with 0.1% crystal violet solution for 10 min at RT. Plates were rinsed with water, air dried, and absorption quantified on the Cytation 3 multi-mode imager at 570 nm wavelength. % parasite growth was calculated as 100−[(OD value for infected cultures at each concentration of compound/average OD value for no compound and no parasite infection) × 100]. EC50 values were calculated based on the mean of three biological replicates with each replicate containing two technical replicates.

Structure (SMILES) | HFF fold selectivity [1] [fold] | % Parasite Growth ([2]; 0.00152416 uM) | % Parasite Growth ([2]; 0.00457247 uM) | % Parasite Growth ([2]; 0.01371742 uM) | % Parasite Growth ([2]; 0.04115226 uM) | % Parasite Growth ([2]; 0.12345679 uM) | % Parasite Growth ([2]; 0.37037037 uM) | % Parasite Growth ([2]; 1.11111111 uM) | % Parasite Growth ([2]; 3.33333333 uM) [%] | % Parasite Growth ([2]; 10 uM) | EC50 ([2]; read-out: EC50 (growth restriction)) [µM] | EC50 ([2]; read-out: EC50, L497I) [µM]
COc1ccc(NC(=O)N2CCCCN3[C@H](CN(C)S(C)(=O)=O)[C@H](c4ccc(C#Cc5ccccc5)cc4)[C@@H]3C2)cc1 [BRD8494] | 571.4 | – | – | – | – | – | – | – | – | – | – | –
COc1ccc(NC(=O)N2CCCCN3[C@H](CN(C)C)[C@H](c4ccc(C#Cc5ccccc5)cc4)[C@@H]3C2)cc1 [BRD7929] | – | 80.35% and 85.68% and 82.9% | 85.9% and 86.11% and 77.47% | 84.76% and 87.14% and 84.02% | 84.55% and 85.22% and 84.57% | 86.89% and 87% and 83.23% | 70.95% and 85.33% and 85.39% | 77.92% and 85.54% and 61.12% | 63.14 | 57.07% and 70.68% and 64.5% | 2.31 | 1.17
